Source: paper PMC9927463, “Identification and Characterization of Corynaridin, a Novel Linaridin from Corynebacterium lactis” (Microbiology Spectrum, 2022)

Key:
[1] = test system: C. glutamicum ATCC 13032/pPB-pHin2^Cg; assay: pHluorin assay for membrane damage; type: cell-based, Corynebacterium glutamicum; conditions: LMB pH 6.2, 30 min room temperature
Method: For detection of membrane damage, a pHluorin assay was conducted as described earlier ([34]). In particular, a 5-mL BHI overnight culture containing kanamycin (50 μg/mL) of the sensor strain C. glutamicum ATCC 13032/pPB-pHin2^Cg was harvested by centrifugation and resuspended to an OD600 of 3 in Listeria minimal buffer [LMB: 100 mM MOPS, 4.82 mM KH2PO4, 11.52 mM Na2HPO4, 1.7 mM MgSO4, 0.6 g/L (NH4)2SO4, 55 mM glucose (pH 6.2)]. Serial 2-fold dilutions of samples were prepared in black 96-well microtiter plates (Sarsted, Nümbrecht, Germany) with a final volume of 100 μL in each well. Subsequently, 100 μL of the sensor strain suspension was added and the plate was incubated at room temperature in the dark for 30 min. Then, pHluorin2 fluorescence was measured at 520 nm with excitation at the distinct maxima at 400 and 480 nm using an infinite M200 plate reader (Tecan, Männedorf, Switzerland).

C. glutamicum ATCC 13032 [2] = assay: time-kill kinetics; type: cell-based, Corynebacterium glutamicum
Method: Fresh overnight cultures of C. glutamicum ATCC 13032 were used to inoculate 5 mL 2× TY in glass tubes with a starting OD600 of 0.5 (i.e., ~10^7 CFU/mL). Samples of interest were added at the indicated concentrations prior to inoculation of the medium. Cultures were then incubated on a rotary shaker at 130 rpm for 24 h at 30°C. Samples were collected at the indicated time points, diluted (10^−1 to 10^−8), and plated on 2× TY agar. CFU per milliliter were determined after 24 to 48 h of incubation of the plates at 30°C by counting the colonies for the respective dilution.

C. glutamicum ATCC 13032 [3] = assay: fluorescence microscopy of propidium iodide-stained bacteria; type: cell-based, Corynebacterium glutamicum; conditions: 4,000-BU/mL RPC fraction, 10 to 30 min incubation
Method: A fresh culture of C. glutamicum ATCC 13032 was washed once in phosphate-buffered saline (PBS), and bacteria were resuspended in saline (0.9% [wt/vol] NaCl) at an OD600 of 1. An 87.5-μL concentration of the cell suspension was mixed with nisin, cetyltrimethylammonium bromide (CTAB), H2O, or the RPC fraction containing corynaridin to the indicated concentrations and incubated for 10 to 30 min in the dark. Then, the bacteria were stained using 12.5 μL propidium iodide (25 μg/mL) (Invitrogen, Darmstadt, Germany) and again incubated for 15 min in the dark. Samples were imaged using a Axio Observer Z1 (Zeiss, Oberkochen, Germany) in bright-field and fluorescence mode with a filter set for propidium iodide (excitation at 575 to 625 nm, emission at 660 to 710 nm). Images were acquired with a 63× lens objective and analyzed using the Zen software (version 2.3 SP1; Zeiss).

[4] = resistance to heat treatment; type: physicochemical; conditions: read-out spot-on-lawn, 10-μL sample
Method: (§1) To assess the physicochemical properties of the purified compound, it was tested for resistance to protease and heat treatment (Fig. 3c and d). While a reduction of activity of the RPC fraction to 8,000 BU/mL (i.e., about 4-fold) was observed after incubation with trypsin or proteinase K, heat treatment at 80°C and 100°C for 10 min had no effect.

proteinase K = proteinase K (Parengyodontium album, UniProt P06873); assay: resistance to protease treatment; type: in vitro ADME
Method: as §1

trypsin = type: in vitro ADME
Method: as §1

[5] = test system: Corynebacterium striatum DSM 20668; assay: spot-on-lawn assay; type: cell-based; set-up: key: +: zone of inhibition; (+): diffuse zone of inhibition; −: no zone of inhibition; conditions: ten-microliter RPC fraction
Method: (§2) Antimicrobial activity was determined using a spot-on-lawn assay. Overnight cultures of the respective strains were inoculated with an OD600 of 0.01 into hand-warmed agar medium (16 g/L agar) and poured into sterile petri dishes. After solidification, surfaces of agar plates were air dried at room temperature under a sterile hood. Supernatants and purification fractions were serially diluted and spotted onto agar plates. Plates were incubated under the preferred conditions of the embedded bacteria until growth was visible. Volumetric bacteriocin activity (bacteriocin units [BU] per milliliter) was determined by dividing the last dilution factor resulting in a visible zone of inhibition by the volume spotted.

[6] = test system: Lactobacillus plantarum DSM 1055; assay: spot-on-lawn assay; type: cell-based; set-up: key: +: zone of inhibition; (+): diffuse zone of inhibition; −: no zone of inhibition; conditions: ten-microliter RPC fraction
Method: as §2

[7] = test system: Staphylococcus epidermidis DSM 3269; assay: spot-on-lawn assay; type: cell-based; set-up: key: +: zone of inhibition; (+): diffuse zone of inhibition; −: no zone of inhibition; conditions: ten-microliter RPC fraction
Method: as §2

[8] = test system: Corynebacterium casei DSM 44701; assay: spot-on-lawn assay; type: cell-based; set-up: key: +: zone of inhibition; (+): diffuse zone of inhibition; −: no zone of inhibition; conditions: ten-microliter RPC fraction
Method: as §2

[9] = test system: Corynebacterium lipophiloflavum DSM 44291; assay: spot-on-lawn assay; type: cell-based; set-up: key: +: zone of inhibition; (+): diffuse zone of inhibition; −: no zone of inhibition; conditions: ten-microliter RPC fraction
Method: as §2

[10] = test system: Lactococcus lactis IL1403; assay: spot-on-lawn assay; type: cell-based; set-up: key: +: zone of inhibition; (+): diffuse zone of inhibition; −: no zone of inhibition; conditions: ten-microliter RPC fraction
Method: as §2

[11] = test system: Pseudomonas fluorescens DSM 50090; assay: spot-on-lawn assay; type: cell-based; set-up: key: +: zone of inhibition; (+): diffuse zone of inhibition; −: no zone of inhibition; conditions: ten-microliter RPC fraction
Method: as §2

[12] = test system: Bacillus subtilis DSM 402; assay: spot-on-lawn assay; type: cell-based; set-up: key: +: zone of inhibition; (+): diffuse zone of inhibition; −: no zone of inhibition; conditions: ten-microliter RPC fraction
Method: as §2

[13] = test system: Corynebacterium amycolatum DSM 6922; assay: spot-on-lawn assay; type: cell-based; set-up: key: +: zone of inhibition; (+): diffuse zone of inhibition; −: no zone of inhibition; conditions: ten-microliter RPC fraction
Method: as §2

[14] = test system: Listeria monocytogenes EGD-e; assay: spot-on-lawn assay; type: cell-based; set-up: key: +: zone of inhibition; (+): diffuse zone of inhibition; −: no zone of inhibition; conditions: ten-microliter RPC fraction
Method: as §2

[15] = test system: Corynebacterium xerosis DSM 20743; assay: spot-on-lawn assay; type: cell-based; set-up: key: +: zone of inhibition; (+): diffuse zone of inhibition; −: no zone of inhibition; conditions: ten-microliter RPC fraction
Method: as §2

[16] = test system: Corynebacterium ammoniagenes DSM 20306; assay: spot-on-lawn assay; type: cell-based; set-up: key: +: zone of inhibition; (+): diffuse zone of inhibition; −: no zone of inhibition; conditions: ten-microliter RPC fraction
Method: as §2

[17] = test system: Micrococcus luteus DSM 20030; assay: spot-on-lawn assay; type: cell-based; set-up: key: +: zone of inhibition; (+): diffuse zone of inhibition; −: no zone of inhibition; conditions: ten-microliter RPC fraction
Method: as §2

[18] = test system: Pediococcus acidilactici 347; assay: spot-on-lawn assay; type: cell-based; set-up: key: +: zone of inhibition; (+): diffuse zone of inhibition; −: no zone of inhibition; conditions: ten-microliter RPC fraction
Method: as §2

[19] = test system: Staphylococcus aureus ATCC 29213; assay: spot-on-lawn assay; type: cell-based; set-up: key: +: zone of inhibition; (+): diffuse zone of inhibition; −: no zone of inhibition; conditions: ten-microliter RPC fraction
Method: as §2

[20] = test system: Corynebacterium efficiens DSM 44549; assay: spot-on-lawn assay; type: cell-based; set-up: key: +: zone of inhibition; (+): diffuse zone of inhibition; −: no zone of inhibition; conditions: ten-microliter RPC fraction
Method: as §2

[21] = test system: Escherichia coli K-12 MG1655; assay: spot-on-lawn assay; type: cell-based; set-up: key: +: zone of inhibition; (+): diffuse zone of inhibition; −: no zone of inhibition; conditions: ten-microliter RPC fraction
Method: as §2

[22] = test system: Corynebacterium glutamicum ATCC 13032; assay: spot-on-lawn assay; type: cell-based; set-up: key to Activity, RPC fraction: +: zone of inhibition; (+): diffuse zone of inhibition; −: no zone of inhibition
Method: as §2

[23] = test system: Cutibacterium acnes DSM 16379; assay: spot-on-lawn assay; type: cell-based; set-up: key to Activity, RPC fraction: +: zone of inhibition; (+): diffuse zone of inhibition; −: no zone of inhibition
Method: as §2

Listeria innocua LMG2785 = assay: spot-on-lawn assay; type: cell-based; set-up: key to Activity, RPC fraction: +: zone of inhibition; (+): diffuse zone of inhibition; −: no zone of inhibition
Method: as §2

Micrococcus luteus = conditions: cited from earlier work
Description: (§3) While extensive studies have been carried out on the structure and chemistry behind their modifications, comparably little is known about the biological functions of linaridins. […] So far, for none of the hitherto described linaridins receptors or mode of action have been prop ...

[24] = test system: Streptococcus pyogenes strain; conditions: cited from earlier work
Description: as §3

Chain of proteinase K (P06873 106-384): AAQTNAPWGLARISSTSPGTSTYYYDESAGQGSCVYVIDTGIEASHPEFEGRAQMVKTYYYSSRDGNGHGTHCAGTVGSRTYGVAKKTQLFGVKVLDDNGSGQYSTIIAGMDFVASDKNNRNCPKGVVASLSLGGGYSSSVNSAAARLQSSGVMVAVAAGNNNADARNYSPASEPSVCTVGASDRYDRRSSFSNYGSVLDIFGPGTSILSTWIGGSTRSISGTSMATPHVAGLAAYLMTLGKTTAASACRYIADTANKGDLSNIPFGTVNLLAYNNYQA

Compound: CCCCCCCCCCCCCCCC[N+](C)(C)C [CTAB, cetyltrimethylammonium bromide]
- change of pHluorin2 fluorescence ratio (excitation 400/480 nm) ([1]; positive controls): reduced fluorescence ratios

Compound: O=C(N[C@H](CO)[C@H](O)c1ccc([N+](=O)[O-])cc1)C(Cl)Cl [chloramphenicol, reference compound]
- CFU per milliliter throughout the experiment (C. glutamicum ATCC 13032 [2]; 6.5 μg/mL, 2x TY, 30°C, 24 h): stable levels of CFU per milliliter

Compound: corynaridin
- membrane integrity by propidium iodide staining (C. glutamicum ATCC 13032 [3]): no evidence for compromised integrity
- effect of heat treatment on activity ([4]; 80°C for 10 min): no effect
- effect of heat treatment on activity ([4]; 100°C for 10 min): no effect
- reduction of activity after incubation with proteinase K (proteinase K; 32,000 to 8,000 BU/mL): about 4 fold
- activity of the RPC fraction after incubation with proteinase K (proteinase K; starting activity 32,000 BU/mL, read-out spot-on-lawn, 10-μL sample, RPC fraction 606 μg/mL total protein): 8,000 BU/mL
- reduction of activity after incubation with trypsin (trypsin): about 4 fold
- Activity, RPC fraction [5]: +
- Activity, RPC fraction [6]: −
- Activity, RPC fraction [7]: −
- Activity, RPC fraction [8]: +
- Activity, RPC fraction [9]: +
- Activity, RPC fraction [10]: +
- Activity, RPC fraction [11]: −
- Activity, RPC fraction [12]: −
- Activity, RPC fraction [13]: +
- Activity, RPC fraction [14]: −
- Activity, RPC fraction [15]: +
- Activity, RPC fraction [16]: +
- Activity, RPC fraction [17]: +
- Activity, RPC fraction [18]: −
- Activity, RPC fraction [19]: −
- Activity, RPC fraction [20]: +
- Activity, RPC fraction [21]: −
- CFU/mL after 24 h (C. glutamicum ATCC 13032 [2]; RPC fraction at 400 BU/mL (lower concentration)): slightly increased CFU/mL after 24 h
- decrease of CFU per milliliter after 2 h (C. glutamicum ATCC 13032 [2]; RPC fraction at 400 BU/mL, 2x TY, 30°C, start ~10^7 CFU/mL): 4 orders of magnitude
- CFU/mL after 24 h (C. glutamicum ATCC 13032 [2]; RPC fraction at 1,060 BU/mL (high concentration)): remained at low levels of CFU/mL
- decrease of CFU per milliliter after 2 h (C. glutamicum ATCC 13032 [2]; RPC fraction at 1,060 BU/mL, 2x TY, 30°C, start ~10^7 CFU/mL): 4 orders of magnitude
- volumetric bacteriocin activity of RPC preparation ([22]; purified from CLI culture supernatant (ammonium sulfate, CIEX, RPC), resuspended in HPLC-grade H2O, BU/mL = last inhibiting dilution factor / volume spotted): 32,000 BU/mL
- volumetric bacteriocin activity of RPC sample for LC-MS ([22]; purified from CLIV minimal medium supernatant (CIEX, RPC), corresponding to 0.5 μg/mL protein): 40,000 BU/mL
- Activity, RPC fraction ([22]; spot-on-lawn, ten-microliter RPC fraction): +
- Activity, RPC fraction ([23]; ten-microliter RPC fraction): (+)
- concentration of RPC fraction at which low levels of inhibition were achieved ([23]; total protein of RPC fraction): > 1,000 μg/mL
- Activity, RPC fraction (Listeria innocua LMG2785; ten-microliter RPC fraction): (+)
- concentration of RPC fraction at which low levels of inhibition were achieved (Listeria innocua LMG2785; total protein of RPC fraction): > 1,000 μg/mL
- change of pHluorin2 fluorescence ratio (excitation 400/480 nm) ([1]; concentrations up to 10,000 BU/mL, at least three biological replicates): did not result in a change of fluorescence ratios

Compound: cypemycin
- antimicrobial activity (Micrococcus luteus): limited to Micrococcus luteus

Compound: nisin [reference compound]
- reduced number of CFU/mL after 2 h (C. glutamicum ATCC 13032 [2]; 1.25 μg/mL, 2x TY, 30°C, start ~10^7 CFU/mL): > 4 log
- change of pHluorin2 fluorescence ratio (excitation 400/480 nm) ([1]; positive controls): reduced fluorescence ratios

Compound: salinipeptins
- growth inhibition [24]: inhibit growth
